In brackets after ≈: the same amount, converted by molar mass. Entries after “also recorded” stand apart in the source; their conditions may differ. Like-named read-outs stand apart in the source and are kept apart here. Marks after values point to notes of the source that are not given here.
Columns and labels:
[1] = tested on: MRSA-1; assay: MIC broth microdilution assay; assay type: cell-based, Staphylococcus aureus; conditions: Staphylococcus aureus, MRSA
[2] = tested on: VRE 700221; assay: Calgary Biofilm Device (CBD) MBC/MBEC assay; assay type: cell-based, Enterococcus faecium
[3] = tested on: MRSE 35984; assay: Calgary Biofilm Device (CBD) MBC/MBEC assay; assay type: cell-based, Staphylococcus epidermidis
[4] = Hemolysis assay with red blood cells; conditions: human, pH 7.2
[5] = tested on: MtB H37Ra; assay: MIC assay for Mycobacterium tuberculosis; assay type: cell-based; conditions: 168 h, seven days
[6] = tested on: S. epi 12228; assay: MIC broth microdilution assay; assay type: cell-based, Staphylococcus epidermidis; conditions: Staphylococcus epidermidis, 12228
[7] = tested on: MRSE 35984; assay: MIC broth microdilution assay; assay type: cell-based, Staphylococcus epidermidis; conditions: for MIC: Staphylococcus epidermidis, MRSE
[8] = tested on: MRSA BAA-1707; assay: Calgary Biofilm Device (CBD) MBC/MBEC assay; assay type: cell-based, Staphylococcus aureus; conditions: for MBC: Staphylococcus aureus
[9] = LDH release assay for HeLa cytotoxicity; assay type: cell-based; conditions: human, HeLa cells; LDH release, 24 hours; tested at 25, 50 and 100 µM; read-out: HeLa Cytotox. IC50
[10] = tested on: MRSA BAA-1707; assay: Macromolecular synthesis inhibition assay with [3H]-labeled precursors; assay type: cell-based, Staphylococcus aureus
Description: To characterize the antibacterial mechanism of action for HP small molecules, we investigated the effects HP 1 has against MRSA BAA-1707 on global biosynthetic pathways in rapidly-dividing (exponentially-growing) planktonic cells through quantifying the incorporation of various [^3H]-labeled precursors into their corresponding macromolecules. For these experiments, MRSA-1707 cultures were treated with [^3H]-thymidine (DNA biosynthesis), [^3H]-uridine (RNA biosynthesis) and [^3H]-leucine (protein biosynthesis) in the presence of HP 1 and antibiotic controls (4–16 x MIC).
Macromolecular syntheses experiments were carried out in methicillin-resistant Staphylococcus aureus BAA-1707. An overnight culture (100 µL) of S. aureus BAA-1707 was sub-cultured into 10 mL of fresh TSBG media which was allowed to grow to exponential phase (OD600 = 0.2–0.3) before transferring 500 µL to each well in a 24 well-plate. The test compounds and vehicle control (DMSO) were added to achieve the desired concentrations relative to their MIC values against S. aureus BAA-1707. Treated cultures were then incubated at 37 °C for 30 minutes before radioactive precursors for DNA ([^3H] thymidine (0.5 µCi)), RNA ([^3H] uridine (0.5 µCi)) and protein ([^3H] leucine (1 µCi)) were added. […] DMSO served as our negative control. DNA and RNA radiolabeled cultures were then incubated in 37 °C for 15 minutes before being stopped by adding 60 µL of cold 5% trichloroacetic acid (TCA). The protein synthesis experiment was stopped after 40 minutes by adding 60 µL cold TCA. These mixtures were then incubated at 2 °C for at least 30 minutes before the contents of the plates were transferred onto glass microfiber filters (24 mm) and washed 5 times with 1 mL of 5% TCA. The filters are allowed to dry overnight before 3.5 mL of the scintillation fluid was added to the scintillation vials containing the filters and the radiation counts were measured using liquid scintillation LS 6500.
H.) Macromolecular Synthesis Inhibition Assay: […]

[11] = tested on: MRSA-2; assay: MIC broth microdilution assay; assay type: cell-based, Staphylococcus aureus; conditions: Staphylococcus aureus, MRSA
[12] = tested on: MRSA BAA-1707; assay: MIC broth microdilution assay; assay type: cell-based, Staphylococcus aureus; conditions: for MIC: Staphylococcus aureus
[13] = tested on: S. epidermidis; assay: MIC assays, S. epidermidis strains; assay type: cell-based; conditions: Staphylococcus epidermidis; range over strains
[14] = tested on: VRE 700221; assay: MIC broth microdilution assay; assay type: cell-based, Enterococcus faecium; conditions: for MIC: Enterococcus, VRE
[15] = tested on: four MRSA isolates; assay: MIC assays, panel of four MRSA isolates; assay type: cell-based; conditions: Staphylococcus aureus, range over isolates, read-out: MIC against a panel of four MRSA isolates
[16] = tested on: MRSA BAA-44; assay: MIC broth microdilution assay; assay type: cell-based; conditions: Staphylococcus aureus; Table 1; read-out: MIC MRSA BAA-44
[17] = tested on: MRSA BAA-1707; assay: MIC assay with metal(II) cation co-treatment; assay type: cell-based, Staphylococcus aureus
[18] = tested on: HeLa cells; assay: LDH release assay for HeLa cytotoxicity; assay type: cell-based; conditions: 100 µM
[19] = Chemical stability in aqueous formulations; assay type: physicochemical; conditions: room temperature
[20] = supplement page 28, single CBD plate
[21] = Table 1, read-out: MIC S. epi 12228
[22] = single plate shown as picture, read-out: MIC (µM), MIC Assay Against S. epidermidis 12228
[23] = Table 1, read-out: MIC MRSE 35984
[24] = Table 3, read-out: MRSE 35984 MIC
[25] = single plate shown as picture, read-out: MIC (µM), MIC Assay Against MRSA-2
[26] = single plate shown as picture, read-out: MIC (µM), MIC Assay Against MRSA-1
[27] = Table 1, three independent experiments, read-out: MIC MRSA BAA-1707
[28] = Table 3, read-out: MRSA BAA-1707 MIC
[29] = single plate shown as picture, read-out: MIC (µM), MIC Assay against MRSA BAA-1707

Row | Compound | MIC ([1]; Table 1, read-out: MIC MRSA-1) [µM] | hemolysis at 1 h, 200 µM [4] [%] | MIC [5] [nM] | MIC [6, 21] [µM] | MIC [6, 22] [µM] | MIC [7, 23] [µM] | MIC [7, 24] [µM] | MIC MRSE 35984 ([7]; Table 1) | IC50 at 24 h [9] [µM] | MIC ([11]; Table 1, read-out: MIC MRSA-2) [µM] | MIC [11, 25] [µM] | MIC [1, 26] [µM] | MIC [12, 27] [µM] | MIC [12, 28] [µM] | MIC [12, 29] [µM] | also measured
1 | Oc1c(Br)cc(Br)c2nc3ccccc3nc12 [HP 1, 2,4-dibromo-1-hydroxyphenazine] | 0.78 (≈ 0.276 µg/mL) | ≤ 1 | 25000 (≈ 8.85 µg/mL) | 2.35 (≈ 0.832 µg/mL) | 3.13 (≈ 1.11 µg/mL) | 2.35 (≈ 0.832 µg/mL) | 2.35 (≈ 0.832 µg/mL) | 2.35^a µM | ~100 | 2.35 (≈ 0.832 µg/mL) | 3.13 (≈ 1.11 µg/mL) |  |  |  |  | MBC ([2]; Enterococcus, VRE, CBD, planktonic killing, read-out: VRE 700221 MBC): 18800 nM (≈ 6.66 µg/mL); VRE Biofilm Eradication MBEC [2, 20]: 12.5 µM; VRE Planktonic Killing MBC [2, 20]: 12500 nM; MBC ([3]; Staphylococcus epidermidis, MRSE, CBD, planktonic killing, read-out: MRSE 35984 MBC): 23500 nM (≈ 8.32 µg/mL); MRSE Biofilm Eradication MBEC [3, 20]: 250 µM; MRSE Planktonic Killing MBC [3, 20]: 15600 nM; MRSA-1707 Biofilm Eradication MBEC ([8]; Figure 7A, single CBD plate): 50 µM; MBC ([8]; 24 h, CBD, planktonic killing, 24 hours treatment, read-out: MRSA BAA-1707 MBC): 50000 nM (≈ 17.7 µg/mL); MBC ([8]; 24 h, supplement page 27, first CBD plate, read-out: MRSA Planktonic Killing MBC): 25000 nM (≈ 8.85 µg/mL); MBC ([8]; 24 h, supplement page 27, second CBD plate, read-out: MRSA Planktonic Killing MBC): 25000 nM (≈ 8.85 µg/mL); MBC ([8]; Figure 7A, single CBD plate, read-out: MRSA-1707 Planktonic Eradication MBC): 25000 nM (≈ 8.85 µg/mL); RNA biosynthesis inhibition ([3H]-uridine) ([10]; 4 x MIC): inhibits; protein biosynthesis inhibition ([3H]-leucine) ([10]; 4 x MIC): inhibits; DNA biosynthesis inhibition ([3H]-thymidine) ([10]; 8 x MIC): does not inhibit; also recorded: not inhibiting
2 | CCc1cccc2nc3c(O)c(Br)cc(Br)c3nc12 [HP 18] | 0.15 (≈ 0.0573 µg/mL) | 1.7 | 25000 (≈ 9.55 µg/mL) | 0.3 (≈ 0.115 µg/mL) | 0.39 (≈ 0.149 µg/mL) | 0.1 to 0.78 (≈ 0.0382 to 0.298 µg/mL) | ≤ 0.1 | ≤ 0.10^b µM | > 100 | 0.39 (≈ 0.149 µg/mL) | 0.39 (≈ 0.149 µg/mL) | 0.2 (≈ 0.0764 µg/mL) | 0.05 to 0.3 (≈ 0.0191 to 0.115 µg/mL) | ≤ 0.1 | 0.1 (≈ 0.0382 µg/mL) | MIC MRSA BAA-1707 ([12]; Table 1, three independent experiments): ≤ 0.10^b µM; MIC [13]: 100 to 300 nM (≈ 0.0382 to 0.115 µg/mL); MIC ([7]; single plate shown as picture, read-out: MIC (µM), MIC Assay Against MRSE 35984): 0.1 µM (≈ 0.0382 µg/mL); MIC ([14]; Table 1, read-out: MIC VRE 700221): 0.15 µM (≈ 0.0573 µg/mL); MIC ([14]; Table 3, read-out: VRE 700221 MIC): 0.15 µM (≈ 0.0573 µg/mL); MIC ([14]; single plate shown as picture, read-out: MIC (µM), MIC Assay Against VRE 700221): 0.2 µM (≈ 0.0764 µg/mL); MIC VRE 700221 ([14]; Table 1): 0.15^a µM; MIC [15]: 50 to 590 nM (≈ 0.0191 to 0.225 µg/mL)
3 | COCCOCCOCCOCCOC(=O)Oc1c(Br)cc(Br)c2nc3c(C)cccc3nc12 [HP 25] | ≤ 0.1 | ≤ 1 | 12500 (≈ 7.53 µg/mL) | ≤ 0.1 |  | 0.15 (≈ 0.0903 µg/mL) | 0.15 (≈ 0.0903 µg/mL) |  | > 100 | ≤ 0.1 |  | 0.1 (≈ 0.0602 µg/mL) | 0.003 (≈ 0.00181 µg/mL) | 0.003 (≈ 0.00181 µg/mL) | 0.003 (≈ 0.00181 µg/mL) | MIC [16]: 13 nM (≈ 0.00783 µg/mL); MIC ([17]; Staphylococcus aureus, Cu(II) co-treatment plate, lanes without metal, read-out: MIC): 0.1 µM; MIC ([17]; Staphylococcus aureus, Fe(II) co-treatment plate, lanes without metal, read-out: MIC): 0.1 µM; MIC ([17]; Staphylococcus aureus, Mg(II) co-treatment plate, lanes without metal, read-out: MIC): 0.003 µM; MIC ([17]; Staphylococcus aureus, Table 2, MRSA BAA-1707, no metal(II) cation added, read-out: MIC): 0.0047 µM; MIC ([17]; Staphylococcus aureus, Zn(II) extended plate assay, lanes without metal, read-out: MIC): 0.003 µM; MIC ([17]; Staphylococcus aureus, copper(II) at 200 µM co-treatment, read-out: MIC w/Cu2+): > 100 µM; MIC ([17]; Staphylococcus aureus, iron(II) at 200 µM co-treatment, read-out: MIC w/Fe2+): 25 µM; MIC ([17]; Staphylococcus aureus, magnesium(II) at 200 µM co-treatment, read-out: MIC w/Mg2+): 0.0047 µM; MIC ([17]; Staphylococcus aureus, single plate, 200 µM Cu(II), read-out: MIC (µM) + Cu(II)): > 100 µM; MIC ([17]; Staphylococcus aureus, single plate, 200 µM Fe(II), read-out: MIC (µM) + Fe(II)): 25 µM; MIC ([17]; Staphylococcus aureus, single plate, 200 µM Mg(II), read-out: MIC (µM) + Mg(II)): 0.003 µM; MIC ([17]; Staphylococcus aureus, zinc(II) at 200 µM co-treatment, read-out: MIC w/Zn2+): 7e-05 µM; MIC ([17]; extended plate assay, 200 µM Zn(II), read-out: MIC (µM) + Zn(II)): 0.00005 µM; HeLa cell cytotoxicity at 100 µM [18]: no HeLa cell cytotoxicity; chemically stable in aqueous formulations [19]: > 1 month

From paper PMC5435703 (Scientific Reports, 2017)
